The source of these data is patent publication US20090216187A1, “Method of Treatment of Vascular Diseases” (priority 2008, published 2009).

Like-named read-outs stand apart in the source and are kept apart here.

The conditions of data set [1]: patient after balloon rupture, cited from earlier work.
Data set [2] can be described thus: renal elimination after incorporation (animal experimental data). The data set is classed as in vivo. The source says:
To date one accidental Rhenium-188 incorporation caused by balloon rupture has been reported. The measured total body dose of the treated patient was 113 mGy (image-based analysis) and 88 mGy (biological analysis), respectively. Thus, the measured radiation exposures were within the theoretical calculated ranges. [Paeng J. C., Lee D. S., Kang W. J., Yang H. M., Chung J. K., Jeong J. M., Chae I. H., Lee M. M., Lee M. C. “Dosimetry in leakage of (188)Re-DTPA during intracoronary balloon brachytherapy” Eur. J. Nucl. Med. Mol. Imaging. 2003; 30(9): 1263-1265]. […] Therefore, Rhenium-188 will remain in the body for about 2 days after incorporation. In the body Rhenium-188 is mainly absorbed by the thyroid (0.0167 mGy/MBq) and the stomach (0.013 mGy/MBq) [Knapp F. F., Jr., Guhlke S., Beets A. L., Lin W. Y., Stabin M., Amols H., Weinberger J. “Endovascular beta irradiation for prevention of restenosis using solution radioisotopes: pharmacologic and dosimetric properties of rhenium-188 compounds.” Cardiovasc. Radiat. Med. 1999; 1(1): 86-97; Lin W. Y., Tsai S. C., Hsieh B. T. Lee T. W., Ting G., Wang S. J “Evaluation of three rhenium-188 candidates for intravascular radiation therapy with liquid-filled balloons to prevent restenosis” J. Nucl. Cardiol. 2000; 7(1): 37-42]. […]

The conditions of data set [3]: cited from earlier work.
For data set [4] the following is noted: renal elimination after incorporation; animal experimental data; cited from earlier work.
For data set [5] the following is noted: subsequent oral administration of perchlorate after Rhenium-188 incorporation; cited from earlier work.
The conditions of data set [6]: complete accidental incorporation of a balloon filling of about 3 ml; cited from earlier work.

For `[188Re]` [Rhenium-188], the “measured total body dose” value in data set [1] (biological analysis) is recorded as 88 mGy; in data set [1] (image-based analysis), 113 mGy. Moreover, in data set [2], the “time remaining in the body after incorporation” value is recorded as “about 2 days”. In addition, the absorbed dose in data set [3] (stomach) is 0.013 mGy/MBq; in data set [3] (thyroid) it was 0.0167 mGy/MBq. Besides, in data set [4], the elimination half-life result is “about 7 h”.

For the compound `[O-][Cl+3]([O-])([O-])O` [perchlorate], in data set [5], the “whole-body radiation reduced to” value is reported as 38%.

Regarding Rhenium-188-DPTA, the “theoretical calculated total body dose” value in data set [6] is on record as “approximately 63 mGy”.
